Measurements taken from patent publication US20220349887A1, “Compositions and Methods for Multiplex Detection of Microorganisms Using Peptide-Tagged Recombinant Infectious Agents” (priority 2021, published 2022).

Key:
Test in all cases: Antibiotic susceptibility testing in human blood: cefoxitin enrichment, then MP115.NL/SAPJV1.NL phage infection, luminescence
Format in all cases: cell-based
[1] = tested on: methicillin-susceptible Staphylococcus aureus (MSSA) ATCC 12600; details: 130 CFU/Well
Procedure: (§1) Methicillin-resistant Staphylococcus aureus (MRSA) strains (ATCC BAA-1720, CDC AR0480) and the methicillin-susceptible Staphylococcus aureus (MSSA) strain (ATCC 12600) were grown to log phase (OD600 ranged from 0.16 to 0.4) in tryptic soy broth (TSB). Cultures were diluted in TSB to obtain the desired burden, which was confirmed by plating on TSB agar for colony forming units (CFU). 50 μL of each dilution was added to test strips. When indicated, some strips contained bound anti-NANOLUC® antibody on medium-binding plates for capture. 85 μL, of either TSB or human blood diluted with TSB and sodium polyanethole sulfonate (SPS) was added. Human blood was collected from a single donor using sodium heparin as an anti-coagulant. Each well then received 15 μL of either TSB or 22 μg/mL cefoxitin (FOX) in TSB. The final concentration of each component in the well (150 μL volume) was 25% human blood, 0.0375% SPS, and 2.2 μg/mL FOX. Test strips were then sealed with cover film and incubated at 37° C. for two hours. After this selective enrichment, 20 μL of phage working stock was added to wells containing the TSB matrix. Phage working stock contained 8×10^7 plaque forming units per mL (pfu/mL) of MP115.NL and 6.9×10^8 pfu/mL of SAPJV1.NL. For wells containing blood matrix, 0.5 mg of recombinant Staphylococcal protein A (pro-356, Prospec, Ness-Ziona, Israel) per well was included within the 20 μL of phage working stock. Assay strips were once again sealed with cover film and incubated at 37° C. for three hours. Following infection, anti-NanoLuc capture and controls strips were washed three times with 300 μL PBS-T (10 mM sodium phosphate, 150 mM NaCl, 0.05% Tween 20, pH 7.4). Washes were conducted using an automatic plate washer (AccuWash, Thermo Fisher Scientific, Waltham, Mass., USA). 100 μL of NanoGlo buffer (Promega, Madison, Wisc., USA) containing 1 μL of NanoGlo substrate (Promega, Madison, Wisc., USA) was added to each well. “No wash+No Capture” strips were not washed and instead received 65 μL of a master mix containing 50 μL NanoGlo Buffer, 15 μL TSB, and 1 μL NanoGlo substrate. Following a 3 minute wait period, the signal output of each sample as relative light units (RLU) was determined using a GloMax Navigator (Promega, Madison, Wisc., USA). Signal over background (SB) was calculated by dividing the RLU from each sample from the RLU observed in the media control for that test matrix (Table 2).

[2] = tested on: Methicillin-resistant Staphylococcus aureus (MRSA) CDC AR0480; details: 110 CFU/Well
Procedure: as §1

[3] = tested on: Methicillin-resistant Staphylococcus aureus (MRSA) ATCC BAA-1720; details: 41 CFU/Well
Procedure: as §1

[4] = 5% BSA Blocked Strips, Blood + FOX 2.2 μg/mL
[5] = 5% BSA Blocked Strips, TSB + FOX 2.2 μg/mL
[6] = Anti-NanoLuc Capture Strips, Blood + FOX 2.2 μg/mL
[7] = Anti-NanoLuc Capture Strips, TSB + FOX 2.2 μg/mL
[8] = No Capture + No Wash, Blood + FOX 2.2 μg/mL
[9] = No Capture + No Wash, TSB + FOX 2.2 μg/mL

Question: With CO[C@@]1(NC(=O)Cc2cccs2)C(=O)N2C(C(=O)O)=C(COC(N)=O)CS[C@@H]21 [FOX, cefoxitin] as the compound, how does the RLU [1, 4] read?
Answer: 10 RLU

Question: What about the S/B [1, 4] of the same compound?
Answer: 1

Question: What about the RLU [1, 5] of the same compound?
Answer: 6 RLU

Question: What about the S/B [1, 5] of the same compound?
Answer: 1

Question: What about the RLU [1, 6] of the same compound?
Answer: 18 RLU

Question: What about the S/B [1, 6] of the same compound?
Answer: 1

Question: What about the RLU [1, 7] of the same compound?
Answer: 80 RLU

Question: What about the S/B [1, 7] of the same compound?
Answer: 1

Question: What about the RLU [1, 8] of the same compound?
Answer: 103 RLU

Question: And the S/B [1, 8]?
Answer: 2

Question: And the RLU [1, 9]?
Answer: 988 RLU

Question: What about the S/B [1, 9] of the same compound?
Answer: 1

Question: What about the RLU [2, 4] of the same compound?
Answer: 3 RLU

Question: What about the S/B [2, 4] of the same compound?
Answer: 0

Question: What about the RLU [2, 5] of the same compound?
Answer: 53 RLU

Question: And the S/B [2, 5]?
Answer: 7

Question: What about the RLU [2, 6] of the same compound?
Answer: 6927 RLU

Question: And the S/B [2, 6]?
Answer: 433

Question: And the RLU [2, 7]?
Answer: 96650 RLU

Question: What about the S/B [2, 7] of the same compound?
Answer: 1255

Question: And the RLU [2, 8]?
Answer: 432 RLU

Question: What about the S/B [2, 8] of the same compound?
Answer: 8

Question: And the RLU [2, 9]?
Answer: 127000 RLU

Question: And the S/B [2, 9]?
Answer: 166

Question: And the RLU [3, 4]?
Answer: 12 RLU

Question: And the S/B [3, 4]?
Answer: 2

Question: What about the RLU [3, 5] of the same compound?
Answer: 20 RLU

Question: And the S/B [3, 5]?
Answer: 3

Question: What about the RLU [3, 6] of the same compound?
Answer: 63960 RLU

Question: And the S/B [3, 6]?
Answer: 3998

Question: And the RLU [3, 7]?
Answer: 79180 RLU

Question: And the S/B [3, 7]?
Answer: 1028

Question: What about the RLU [3, 8] of the same compound?
Answer: 9035 RLU

Question: And the S/B [3, 8]?
Answer: 177

Question: And the RLU [3, 9]?
Answer: 342000 RLU

Question: What about the S/B [3, 9] of the same compound?
Answer: 447
